From patent US9522124B2, “Methods for treating Alzheimer's disease” (Wisconsin Alumni Research Foundation, priority 2011, dated 2016)

Tests used:
[1] = system: histone acetyltransferase p300/CBP; test: In vitro activity of histone acetyltransferase p300/CBP; assay type: biochemical; settings: data not shown
APP695/swe mice = test: Long-term potentiation in hippocampal brain slices of treated mice; assay type: in vivo, mouse; settings: 50 mg/kg/day in diet, 4 months
Protocol: FIG. 15. Compound 9 prevents synaptic deficits in APP695/swe mice. Non-Transgenic (Non-Tg) and APP695/swe mice were fed a diet containing 50 mg/kg/day of compound 9 for 4 months prior to synaptic assessment. Compound 9 prevented the severe deficits of the late component of long term potentiation (LTP) that characterizes the APP695/swe phenotype (A). […] Field excitatory postsynaptic potential (fEPSP) as percent of baseline (100) is shown as a function of time. Calibration: 1 mV, 1 ms. All values are mean±SEM. *P<0.0001.
In order to assess disease-relevant functions, we performed a pilot study with APP695/swe mice, a commonly-used mouse model of AD. APP695/swe mice express a modified mouse APP cDNA encoding the 695-amino acid isoform with a “humanized” Aβ domain that includes the familial AD-associated Swedish double mutation. APP695/swe mice develop synaptic deficits at 3-5 months of age, well before any sign of neurodegeneration can be observed. The cognitive deficits as well as the amyloid plaques can be detected only later, at approximately 12-18 months of age (reviewed in Duyckaerts, et al., 2008).
A group of non-transgenic and APP695/swe mice were fed a diet containing 50 mg/kg/day of compound 9. Treatment started at weaning (˜6 weeks of age) and lasted 4 months. […]

Aβ = test: ELISA determination of secreted Aβ in conditioned media of H4 cells; assay type: cell-based, human; settings: 10 μM, 48 hours
Protocol: For Aβ determinations in the conditioned media, H4 cells were plated in 6-well Petri dishes. When 80-90% confluent, cells were washed in PBS and incubated in 1 ml of fresh medium for 48 hr. Secreted Aβ was determined by standard sandwich ELISA as described before (Costantini et al., 2007; Costantini et al., 2006; Jonas et al., 2008; Jonas et al., 2010; Ko and Puglielli, 2009; Pehar et al., 2010). For each sample, the levels of Aβ40, Aβ42, and Aβtotal were quantified as triplicate based upon standard curves run (on every ELISA plate) and then expressed as pmol Aβ/mg of protein. Aβ42 was constantly found to be ˜25% of total Aβ values.

BACE1 [2] = test: Western blot assessment of BACE1 levels in H4 cell lysates; assay type: cell-based, human; settings: H4 cells, 48 hours
Protocol: Western blotting was performed on a 4-12% Bis-Tris SDS-PAGE system (NuPAGE; Invitrogen, Carlsbad, Calif., USA) as described previously (Costantini et al., 2006; Jonas et al., 2008; Jonas et al., 2010; Ko and Puglielli, 2007; Ko and Puglielli, 2009; Pehar et al., 2010). The following antibodies were used in this study: anti-acetylated lysine (monoclonal; cat. no. ab409; Abcam, Cambridge, Mass., USA); anti-BACE1 (polyclonal; cat. no. ab2077; Abcam); anti-Myc (monoclonal; cat. no. sc-40; santa cruz, Santa Cruz, Calif., USA); anti-ATases/NAT8 (polyclonal; cat. no. AP4957c; Abgent, San Diego, Calif., USA); anti-actin (monoclonal; cat. no. A1978; Sigma, St Louis, Mo., USA); anti-C99 (monoclonal; cat. no. M066-3; MBL, Woburn, Mass., USA); anti-acetylated H3 (polyclonal; cat. no. 06-599, Millipore, Billerica, Mass.); anti-acetylated H4 (polyclonal; cat. no. 06-866, Millipore, Billerica, Mass.); anti-αPCNA (polyclonal; cat. no. AP2835b, Abgent, San Diego, Calif., USA).
Samples were imaged with classical chemiluminescence and with the LiCor Odyssey Infrared Imaging System (LI-COR Biosciences, Lincoln, Nebr., USA). For chemiluminescent detection, HRP-conjugated anti-mouse or anti-rabbit secondary antibodies were used at 1:6000 dilution in 3% BSA/TBST (GE Healthcare). Detection was performed with either Lumiglo (KPL) or ECL Plus (GE Healthcare). For infrared imaging, goat anti-rabbit Alexa Fluor 680-conjugated secondary antibodies were used.
To assess their biological effects, we treated human neuroglioma (H4) cells with 10 μM of both compounds. […] This might reflect different kinetics of inhibition as well as different IC50s (see FIG. 2). Alternatively, it might also be explained by different cell-permeability properties. In fact, the cLog P for compound 9 and 19 is 5.03 and 3.19, respectively. The cLog P (or partition coefficient) is an indication of partition properties of a compound between hydrophobic and hydrophilic compartments. Higher values indicate preferential distribution in hydrophobic environments and, as such, increased permeability across biological membranes.

BACE1 [3] = test: Western blot of BACE1 in brain tissue homogenates of APP695/swe mice; assay type: in vivo, mouse; settings: 50 mg/kg/day in diet, 4 months
Protocol: FIG. 16. Compound 9 decreases levels of BACE1 in brain tissue homogenates of APP695/swe transgenic mice. Compound 9 was administered to select transgenic mice for four months, beginning at weaning, with additional transgenic mice used as controls. Brain tissue homogenates were obtained from sacrificed transgenic mice and Western blot assessment of BACE1 in brain tissue homogenates was performed.
A group of non-transgenic and APP695/swe mice were fed a diet containing 50 mg/kg/day of compound 9. Treatment started at weaning (˜6 weeks of age) and lasted 4 months. At the end of treatment, the animals were sacrificed and the electrophysiological properties of hippocampal brain slices (as induced by theta burst stimulation to the Schaffer collaterals) were studied.

For `O=c1c(Cl)c2oc3ccccc3nc-2c2ccccc12` [Compound 9], the “inhibition of in vitro activity of p300/CBP” value [1] was “neither compound inhibited”, the “defect in late component of long-term potentiation (LTP)” value (APP695/swe mice; APP695/swe mice) was “drastically prevented” and the “effect on LTP in non-transgenic mice” value (APP695/swe mice; non-transgenic mice) was “no effect was observed”. The “levels of Aβ in the conditioned media / generation of Aβ” value (Aβ) was “decreased levels of Aβ”, the “levels of BACE1” value (BACE1 [2]; 10 μM) was “significant reduction” and the “levels of BACE1 with increasing concentrations” value (BACE1 [2]; increasing concentrations) was “dose-dependent decrease”. For the same molecule, the “BACE1 levels in brain homogenates” value (BACE1 [3]) was “marked reduction”.
